Measured values from patent US20240239752A1, “BICYCLIC HETEROAROMATIC INHIBITORS OF KLK5” (BioCryst Pharmaceuticals, Inc., priority 2021, published 2024).
pIC50: −log10 of the molar value.

These compounds were tested against T1, recombinant human KLK5 (Homo sapiens, UniProt Q9Y337) (assay: Kallikrein (KLK) 5 enzymatic assay (Boc-VPR-AMC fluorogenic substrate)). Details: recombinant human KLK5 0.1 μg/well, Boc-VPR-AMC 100 μM, pH 7.5, room temperature, 1% DMSO; tested a minimum of three times.
T1 construct: purchased Novoprotein or R&D Systems C415 or 1108-SE
T1 sequence (Q9Y337 23-293): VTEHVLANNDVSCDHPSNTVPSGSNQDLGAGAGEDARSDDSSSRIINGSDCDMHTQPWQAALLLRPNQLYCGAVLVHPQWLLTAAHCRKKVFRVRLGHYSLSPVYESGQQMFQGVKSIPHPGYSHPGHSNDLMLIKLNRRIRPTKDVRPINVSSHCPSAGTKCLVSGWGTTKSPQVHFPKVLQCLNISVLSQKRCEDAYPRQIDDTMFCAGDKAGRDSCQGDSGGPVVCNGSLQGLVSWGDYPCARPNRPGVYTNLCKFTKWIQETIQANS
Assay type: biochemical
In short: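 Recombinant human KLK5 (0.1 μg/well) was preincubated with compound at room temperature in 0.1 M NaH2PO4, pH 7.5, 1% DMSO, then started with 100 μM Boc-VPR-AMC. The rate was followed at 380/460 nm, and IC50 came from percent inhibition relative to enzyme alone, with at least three runs.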

SMILES | pIC50
N=C(N)c1cccc(-c2ccc3c(c2)c(COc2ccccc2CC(=O)O)nn3C2CCCCC2)c1 [Compound 226b, 2-(2-((5-(3-carbamimidoylphenyl)-1-cyclohexyl-1H-indazol-3-yl)methoxy)phenyl)acetic acid] | > 6.00
N=C(N)c1cccc(-c2cc(OCc3ccccn3)c3occ(COc4ccccc4CC(=O)O)c3c2)c1 [Compound 227i, 2-(2-((5-(3-carbamimidoylphenyl)-7-(pyridin-2-ylmethoxy)benzofuran-3-yl)methoxy)phenyl)acetic acid] | > 6.00
N=C(N)c1cccc(-c2cc(OCc3nccs3)c3occ(COc4ccccc4CC(=O)O)c3c2)c1 [Compound 228f, 2-(2-((5-(3-carbamimidoylphenyl)-7-(thiazol-2-ylmethoxy)benzofuran-3-yl)methoxy)phenyl)acetic acid] | > 6.00
COc1cc(-c2ccc3ccnc(N)c3c2)cc2c(COc3ccccc3CC(=O)O)coc12 [Compound 229f, 2-(2-((5-(1-aminoisoquinolin-7-yl)-7-methoxybenzofuran-3-yl)methoxy)phenyl)acetic acid] | 5.00 to 6.00
COc1cc(-c2ccc3ccnc(N)c3c2)cc2c(COc3cc(C)ccc3CC(=O)O)coc12 [Compound 230d, 2-(2-((5-(1-aminoisoquinolin-7-yl)-7-methoxybenzofuran-3-yl)methoxy)-4-methylphenyl)acetic acid] | 5.00 to 6.00
Nc1nccc2ccc(-c3cc4c(COc5ccccc5CC(=O)O)cccc4o3)cc12 [Compound 231f, 2-(2-((2-(1-aminoisoquinolin-7-yl)benzofuran-4-yl)methoxy)phenyl)acetic acid] | 5.00 to 6.00
Nc1nccc2c(-c3cc4c(COc5ccccc5CC(=O)O)cccc4o3)cccc12 [Compound 232b, 2-(2-((2-(1-aminoisoquinolin-5-yl)benzofuran-4-yl)methoxy)phenyl)acetic acid] | < 5.00
Cc1cc(-c2ccc3ccnc(N)c3c2)cc2c(COc3ccccc3CC(=O)O)coc12 [Compound 233f, 2-(2-((5-(1-aminoisoquinolin-7-yl)-7-methylbenzofuran-3-yl)methoxy)phenyl)acetic acid] | 5.00 to 6.00
COc1ccc(CC(=O)O)c(OCc2coc3c(OC)cc(-c4ccc5ccnc(N)c5c4)cc23)c1 [Compound 234c, 2-(2-((5-(1-aminoisoquinolin-7-yl)-7-methoxybenzofuran-3-yl)methoxy)-4-methoxyphenyl)acetic acid] | < 5.00
COc1cc(-c2cccc3c(N)nccc23)cc2c(COc3ccccc3CC(=O)O)coc12 [Compound 235b, 2-(2-((5-(1-aminoisoquinolin-5-yl)-7-methoxybenzofuran-3-yl)methoxy)phenyl)acetic acid] | 5.00 to 6.00
COc1cc(-c2cccc(C(=N)N)c2)cc2c(COc3ccccc3CC(=O)O)coc12 [Compound 236b, 2-(2-((5-(3-carbamimidoylphenyl)-7-methoxybenzofuran-3-yl)methoxy)phenyl)acetic acid] | > 6.00
COc1cc(-c2ccc3ccnc(N)c3c2)cc2c(COc3c(C)cccc3CC(=O)O)coc12 [Compound 237c, 2-(2-((5-(1-aminoisoquinolin-7-yl)-7-methoxybenzofuran-3-yl)methoxy)-3-methylphenyl)acetic acid] | < 5.00
COc1c(C(=N)N)cccc1-c1ccc2c(c1)c(COc1ccccc1CC(=O)O)nn2C1CCC1 [Compound 238d, 2-(2-((5-(3-carbamimidoyl-2-methoxyphenyl)-1-cyclobutyl-1H-indazol-3-yl)methoxy)phenyl)acetic acid] | > 6.00
Cc1cccc(OCc2nn(C3CCCC3)c3ccc(-c4cccc5c(N)nccc45)cc23)c1CC(=O)O [Compound 239f, 2-(2-((5-(1-aminoisoquinolin-5-yl)-1-cyclopentyl-1H-indazol-3-yl)methoxy)-6-methylphenyl)acetic acid] | > 6.00

The next lines start with the values.

pIC50 | SMILES
> 6.00 | Cc1cccc(OCc2nn(C3CCCC3)c3ccc(-c4ccc5ccnc(N)c5c4)cc23)c1CC(=O)O [Compound 240b, 2-(2-((5-(1-aminoisoquinolin-7-yl)-1-cyclopentyl-1H-indazol-3-yl)methoxy)-6-methylphenyl)acetic acid]
> 6.00 | CC(C(=O)O)c1ccccc1OCc1nn(C2CCOC2)c2ccc(-c3cccc4c(N)nccc34)cc12 (stereo not drawn) [Compound 241f, 2-(2-((5-(1-aminoisoquinolin-5-yl)-1-(tetrahydrofuran-3-yl)-1H-indazol-3-yl)methoxy)phenyl)propanoic acid]
> 6.00 | CC(C(=O)O)c1ccccc1OCc1nn(C2CCOC2)c2ccc(-c3ccc4ccnc(N)c4c3)cc12 (stereo not drawn) [Compound 242b, 2-(2-((5-(1-aminoisoquinolin-7-yl)-1-(tetrahydrofuran-3-yl)-1H-indazol-3-yl)methoxy)phenyl)propanoic acid]
> 6.00 | Nc1nccc2c(-c3ccc4c(c3)c(COc3ccccc3CC(=O)O)nn4[C@H]3CCOC3)cccc12 [Compound 243h, (S)-2-(2-((5-(1-aminoisoquinolin-5-yl)-1-(tetrahydrofuran-3-yl)-1H-indazol-3-yl)methoxy)phenyl)acetic acid]
> 6.00 | Nc1nccc2ccc(-c3ccc4c(c3)c(COc3ccccc3CC(=O)O)nn4[C@H]3CCOC3)cc12 [Compound 244b, (S)-2-(2-((5-(1-aminoisoquinolin-7-yl)-1-(tetrahydrofuran-3-yl)-1H-indazol-3-yl)methoxy)phenyl)acetic acid]
> 6.00 | Nc1nccc2c(-c3ccc4c(c3)c(COc3ccccc3CC(=O)O)nn4[C@@H]3CCOC3)cccc12 [Compound 245h, (R)-2-(2-((5-(1-aminoisoquinolin-5-yl)-1-(tetrahydrofuran-3-yl)-1H-indazol-3-yl)methoxy)phenyl)acetic acid]
> 6.00 | Nc1nccc2ccc(-c3ccc4c(c3)c(COc3ccccc3CC(=O)O)nn4[C@@H]3CCOC3)cc12 [Compound 246b, (R)-2-(2-((5-(1-aminoisoquinolin-7-yl)-1-(tetrahydrofuran-3-yl)-1H-indazol-3-yl)methoxy)phenyl)acetic acid]
> 6.00 | Cc1cccc(OCc2nn(C3CCOC3)c3ccc(-c4cccc5c(N)nccc45)cc23)c1CC(=O)O (stereo not drawn) [Compound 247c, 2-(2-((5-(1-aminoisoquinolin-5-yl)-1-(tetrahydrofuran-3-yl)-1H-indazol-3-yl)methoxy)-6-methylphenyl)acetic acid]
> 6.00 | Cc1cccc(OCc2nn(C3CCOC3)c3ccc(-c4ccc5ccnc(N)c5c4)cc23)c1CC(=O)O (stereo not drawn) [Compound 248b, 2-(2-((5-(1-aminoisoquinolin-7-yl)-1-(tetrahydrofuran-3-yl)-1H-indazol-3-yl)methoxy)-6-methylphenyl)acetic acid]
> 6.00 | Nc1nccc2c(-c3ccc4c(c3)c(COc3ccccc3CC(=O)O)nn4C3CCOC3)cccc12 (stereo not drawn) [Compound 249b, 2-(2-((5-(1-aminoisoquinolin-5-yl)-1-(tetrahydrofuran-3-yl)-1H-indazol-3-yl)methoxy)phenyl)acetic acid]
> 6.00 | Nc1nccc2ccc(-c3ccc4c(c3)c(COc3ccccc3CC(=O)O)nn4C3CCOC3)cc12 (stereo not drawn) [Compound 250b, 2-(2-((5-(1-aminoisoquinolin-7-yl)-1-(tetrahydrofuran-3-yl)-1H-indazol-3-yl)methoxy)phenyl)acetic acid]
> 6.00 | Nc1nccc2c(-c3ccc4c(c3)c(COc3ccccc3CC(=O)O)nn4CC3CC3)cccc12 [Compound 251c, 2-(2-((5-(1-aminoisoquinolin-5-yl)-1-(cyclopropylmethyl)-1H-indazol-3-yl)methoxy)phenyl)acetic acid]
> 6.00 | Nc1nccc2c(-c3ccc4c(c3)c(COc3ccccc3CC(=O)O)nn4CC3CCC3)cccc12 [Compound 252h, 2-(2-((5-(1-aminoisoquinolin-5-yl)-1-(cyclobutylmethyl)-1H-indazol-3-yl)methoxy)phenyl)acetic acid]
> 6.00 | Nc1nccc2ccc(-c3ccc4c(c3)c(COc3ccccc3CC(=O)O)nn4CC3CCC3)cc12 [Compound 253b, 2-(2-((5-(1-aminoisoquinolin-7-yl)-1-(cyclobutylmethyl)-1H-indazol-3-yl)methoxy)phenyl)acetic acid]
> 6.00 | N=C(N)c1cccc(-c2ccc3c(c2)c(COc2ccccc2CC(=O)O)nn3CC2CCC2)c1 [Compound 254c, 2-(2-((5-(3-carbamimidoylphenyl)-1-(cyclobutylmethyl)-1H-indazol-3-yl)methoxy)phenyl)acetic acid]
> 6.00 | COc1c(C(=N)N)cccc1-c1ccc2c(c1)c(COc1ccccc1CC(=O)O)nn2CC1CCC1 [Compound 255d, 2-(2-((5-(3-carbamimidoyl-2-methoxyphenyl)-1-(cyclobutylmethyl)-1H-indazol-3-yl)methoxy)phenyl)acetic acid]
5.00 to 6.00 | Nc1nccc2c(-c3cc(-c4ccccc4)c4c(c3)C(Oc3ccccc3CC(=O)O)CC4)cccc12 (stereo not drawn) [Compound 256f, 2-(2-((6-(1-aminoisoquinolin-5-yl)-4-phenyl-2,3-dihydro-1H-inden-1-yl)oxy)phenyl)acetic acid]
> 6.00 | Nc1nccc2c(-c3cc(C4CC4)c4c(c3)C(Oc3ccccc3CC(=O)O)CC4)cccc12 (stereo not drawn) [Compound 257b, 2-(2-((6-(1-aminoisoquinolin-5-yl)-4-cyclopropyl-2,3-dihydro-1H-inden-1-yl)oxy)phenyl)acetic acid]
> 6.00 | Nc1nccc2c(-c3cc(Cl)c4c(c3)C(Oc3ccccc3CC(=O)O)CC4)cccc12 (stereo not drawn) [Compound 258a, 2-(2-((6-(1-aminoisoquinolin-5-yl)-4-chloro-2,3-dihydro-1H-inden-1-yl)oxy)phenyl)acetic acid]
